{"source": "patent US20050203168A1", "about": "“Angiotensin converting enzyme inhibitor use for treatment and prevention of gastrointestinal disorders” (The Regents of the University of Michigan, priority 2004, published 2005)", "key": {"IEL ACE mRNA": {"test_system": "IEL ACE mRNA", "test": "IEL ACE mRNA by real time PCR in SBS and Sham mice given ACE-I", "assay_type": "in vivo, mouse", "conditions": "enalaprilat 0.6 mg/kg/day i.p. 7 days, ratio ACE-cDNA copies over β-actin-cDNA copies", "method": "(§1) Short Bowel Syndrome Model: A 70% mid-small bowel resection was performed (i.e. bowel between 3.5 cm distal to the ligament of Treitz and 3.5 cm proximal to the ileocecal valve), followed by an end-to-end jejuno-ileal anastomosis with 7-0 monofilament, absorbable suture. Postoperatively a subcutaneous bolus of 3 ml 0.9% saline solution was given to maintain hydration status.\n(§2) Sham operation: Mid-small bowel was transsected and re-anastomosed without bowel-resection.\nIEL purification: Isolation of purified IEL from EC was performed by direct magnetic separation. Magnetic beads conjugated with antibody to CD45 (pan-lymphoid marker) were used to segregate IEL from EC (BioMag SelectaPure Anti-Mouse CD 45R Antibody Particles, Polyscience Inc., Warrington, Pa.). Magnetic separation was performed twice to further deplete EC. […]\nReal time PCR: Real-time PCR was run to better quantify actual changes in ACE expression. cDNA was also used for real time PCR. The same primers for ACE and β-actin were used as for conventional PCR, SYBR Green I was utilized for fluorescence. […] Ct- values of ACE and β-actin were converted to numbers of cDNA copies, and results expressed as the ratio of ACE over β-actin expression.\n(§3) To further understand the relevance of ACE expression on EC apoptosis, ACE-inhibition was used. […] After 1 week, mice were killed, EC apoptotic rates assessed, and IEL mRNA and protein isolated."}, "[1]": {"test_system": "epithelial cell (EC) apoptosis", "test": "Epithelial cell apoptosis/necrosis by Annexin V / propidium iodide flow cytometry in SBS and Sham mice given ACE-I", "assay_type": "in vivo, mouse", "conditions": "0.6 mg/kg/day i.p., 1 week", "method": "(§4) Animals: Male, 2 month old, C57BL/6J mice (Jackson Laboratories, Bar Harbor, Me.) were maintained in a 12-hour day-night rhythm at 23° C. and a relative humidity of 40%-60%. 24 hours before surgery chow was exchanged to micro-stabilized rodent liquid diet (TestDiet, Richmond, Ind.). Anesthesia was achieved using sodium pentobarbital (50 mg/kg body weight, intraperitoneally, i.p.). For some experiments B6.129P2-Ace^tm2Unc (ACE^−/−; lacking somatic ACE, generous gift from the Dr. O. Smithies, Duke University), or B6;129S6-Tnf^tm1Gkl (TNF-α-knockout mice, Jackson Labs) were used. Studies conformed, and were approved by the University Committee on Use and Care of Animals at the University of Michigan.\nas §1, §2\nAnnexin V staining: Apoptosis was determined by flow cytometry based on the cell surface expression of phosphatidylserine using Annexin V staining (BD PharMingen, San Diego, Calif.). Propidium iodide was utilized to simultaneously monitor cell necrosis. Flow cytometry was performed by using standard techniques. Separation of EC from IEL was done by forward- and side-scatter gating characteristics. Further confirmation of EC and IEL purity was performed with specific staining of EC with antibody generated by a hybridoma G8.8 and a pan-lymphoid antibody (anti-CD45, PharMingen, San Diego, Calif.): Purity exceeded >98%.\nMucosal cell isolation: Isolation of mucosal cells was performed using standard protocols. […]\nas §3"}, "SBS mice": {"test_system": "SBS mice", "test": "Histology (villus height, crypt depth) of mid-small bowel in SBS and Sham mice given ACE-I", "assay_type": "in vivo, mouse", "conditions": "for Crypt depth / Villus height: 0.6 mg/kg/day i.p., 1 week postoperatively, 0.6 mg/kg/day", "method": "as §4, §1, §2\nHistology: A 0.5 cm segment of mid-small bowel was fixed in 10% formaldehyde, and processed for hematoxylin and eosin staining. Villus height and crypt depth were measured using a calibrated micrometer. Each measurement consisted of a mean of 16 different low power fields.\n(§5) To further understand the relevance of ACE expression on EC apoptosis, ACE-inhibition was used. ACE-I (enalaprilat, 0.6 mg/kg/day i.p.) was given to both SBS (SBS+ACE-I), and sham operated (Sham+ACE-I) mice over a 7 day period, starting on the day after surgery. This latter group was studied as an additional control to assess the effects of ACE-I in the absence of a SBS. After 1 week, mice were killed, EC apoptotic rates assessed, and IEL mRNA and protein isolated."}, "DSS-induced colitis": {"test_system": "DSS-induced colitis", "test": "DSS-induced colitis mouse model", "assay_type": "in vivo", "method": "Male C57BL/6 specific-pathogen-free 2-month-old mice were kept in a 12-hour day/night environment maintained at 23° C. and a relative humidity of 40-60%. All mice drank 2.5% (w/v) DSS in water for 7 days followed by one day of plain water, while being fed normal mouse chow. Mice either received daily enalaprilat injection (0.015 mg/day, injection volume 0.5 ml, intraperitoneal) (n=6, “ACE-I”) or daily normal saline injection 0.5 ml (n=6, “Saline”). Body weight and hemoccult stool reaction were recorded. After the eight days of treatment, mice were euthanized with CO2, and colonic samples were immediately taken for histology and mucosal RNA extraction. Distal 1-cm colonic segments were excised, opened longitudinally, and fixed in 10% neutral buffered formalin. The remainder of the colon, including the cecum, was washed, cut into pieces, and mixed gently at 37° C. in EDTA/dithiothreitol buffer. The resulting mixture of epithelial cells and intraepithelial lymphocytes was then filtered through nylon wool and pelleted by centrifugation. Total RNA of the cell pellet was obtained using TRIZOL reagent and chloroform-isopropanol-ethanol extraction. Reverse transcription of RNA was done in the presence of RNAse inhibitor. RT product was then amplified with forward and reverse primers specific for ACE, TNF-α, and beta-actin, using real-time semiquantitative PCR. PCR results were analyzed by expressing ACE and TNF-α levels as a ratio to beta-actin levels, and were compared using a 2-tailed students' T test. Histologic grading of colitis was done by blinded observers using a standard scale for colitis severity. Histologic scores, as well as body weights and hemoccult results, were compared between groups using a 2-tailed homoscedastic T test."}, "IEL ACE protein": {"test_system": "IEL ACE protein", "test": "IEL ACE protein by immunoblot in SBS and Sham mice given ACE-I", "assay_type": "in vivo, mouse", "conditions": "0.6 mg/kg/day i.p. 7 days, ratio of ACE over β-actin protein", "method": "as §1, §2\nIEL purification: Isolation of purified IEL from EC was performed by direct magnetic separation. Magnetic beads conjugated with antibody to CD45 (pan-lymphoid marker) were used to segregate IEL from EC (BioMag SelectaPure Anti-Mouse CD 45R Antibody Particles, Polyscience Inc., Warrington, Pa.). […]\nImmunoblot analysis: Protein was extracted from isolated IEL and immunoblots performed by using a Bio-Rad protein assay kit (Bio-Rad Laboratories, Hercules, Calif.), with standard methods. […] Expression for β-actin was determined in the same fashion by re-probing membranes with purified anti-mouse β-actin (1:12000, Sigma-Aldrich, St. Louis, Mo.). Results are expressed as the ratio of ACE over β-actin protein expression.\nas §3"}, "[2]": {"test_system": "epithelial cell (EC) apoptosis", "test": "Epithelial cell apoptosis by TUNEL staining in SBS and Sham mice given ACE-I", "assay_type": "in vivo, mouse", "conditions": "for EC Apoptosis (TUNEL analysis): 0.6 mg/kg/day i.p. 7 days", "method": "as §4, §1, §2\nTUNEL staining: Paraffin-embedded tissue was assayed with TUNEL (Terminal deoxynucleotidyl transferase Biotin-dUTP Nick End Labeling) staining, according to slight modification of manufacturer's instructions (ApopTag InSitu Apoptosis Detection Kit, Serological Corporation, Norcross, Ga.): slides were incubated with only ⅓ of the recommended concentration of TdT enzyme, in order to avoid over-staining. Apoptosis rate (percent of EC showing apoptosis) was assessed with TUNEL staining and by morphological criteria (nuclear margination, chromatin and cytoplasmic condensation, shrinkage from neighboring cells, and formation of apoptotic bodies with nuclear and cytoplasmic fragmentation). Each assessment of apoptosis consists of the mean of 8 different crypt-villus-complexes.\nas §5"}, "IEL TNF-α mRNA": {"test_system": "IEL TNF-α mRNA", "test": "IEL TNF-α mRNA by RT-PCR in SBS and Sham mice given ACE-I", "assay_type": "in vivo, mouse", "conditions": "for IEL TNF-α mRNA: 0.6 mg/kg/day i.p. 7 days, ratio over β-actin mRNA", "method": "as §1, §2\nIEL purification: Isolation of purified IEL from EC was performed by direct magnetic separation. Magnetic beads conjugated with antibody to CD45 (pan-lymphoid marker) were used to segregate IEL from EC (BioMag SelectaPure Anti-Mouse CD 45R Antibody Particles, Polyscience Inc., Warrington, Pa.). Magnetic separation was performed twice to further deplete EC. Final IEL purity was greater than 99% by flow cytometry.\nIsolation of total RNA: A guanidine isothiocyanate/chloroform extraction method was performed using Trizol (Gibco BRL, Gaithersburg, Md.) according to manufacturer's directions.\nReverse transcriptase polymerase chain reaction (RT-PCR): mRNA (poly-A positive) was reversed transcribed into cDNA following a standard protocol. Specific primers for selected gene sequences were designed. PCR and gel were run under standard conditions. To ensure that DNA product was generated at the exponential portion of the product curve, the following cycle numbers were used: 28 cycles for ACE; 32 cycles for Rap2 interacting protein and TNF-α; and 34 cycles for lipocalin 2, amphiregulin, leucine-rich-α2-glycoprotein, and angiotensin II receptors. Gel bands were analyzed by DNA sequencing to ensure the correct product. Kodak EDAS System (Rochester, N.Y.) was used for imaging and quantification. Results were expressed as the ratio of the investigated mRNA over the β-actin mRNA expression.\nas §3"}, "[3]": {"conditions": "ACE-I administration to SBS mice"}}, "note": "Several values for one entry are separate records, joined by “and”; a condition that tells them apart may be missing. Identical values can stand only once.", "data": [{"smiles": "C[C@H](N[C@@H](CCc1ccccc1)C(=O)O)C(=O)N1CCC[C@H]1C(=O)O", "note": "[ACE-I, enalaprilat]", "values": [{"measurement": "IEL ACE mRNA", "setting": "IEL ACE mRNA; SBS + ACE-I mice", "value": "0.63 ± 0.25"}, {"measurement": "IEL ACE mRNA", "setting": "IEL ACE mRNA; Sham + ACE-I mice", "value": "0.66 ± 0.22"}, {"measurement": "EC necrosis (propidium iodide)", "setting": "[1]; SBS + ACE-I mice", "value": "5.2±2.6", "unit": "%"}, {"measurement": "EC necrosis (propidium iodide)", "setting": "[1]; Sham + ACE-I mice", "value": "5.2±2.6", "unit": "%"}, {"measurement": "EC apoptosis (Annexin V staining)", "setting": "[1]; Sham + ACE-I mice, flow cytometry", "value": "16.9±8.8", "unit": "%"}, {"measurement": "Change in crypt depth compared to SBS mice", "setting": "SBS mice; [3]", "value": "significant (P=0.02), additional increase in crypt depth"}, {"measurement": "Change in villus height compared to SBS mice", "setting": "SBS mice; [3]", "value": "unchanged"}, {"measurement": "Crypt depth", "setting": "SBS mice; SBS + ACE-I mice", "value": "145±22 μm and 145 ± 22° μm"}, {"measurement": "Villus height", "setting": "SBS mice; SBS + ACE-I mice", "value": "552±56", "unit": "μm"}, {"measurement": "Alterations in histological features", "setting": "SBS mice; Sham + ACE-I mice", "value": "no significant alterations"}, {"measurement": "Crypt depth", "setting": "SBS mice; Sham + ACE-I mice", "value": "87±6", "unit": "μm"}, {"measurement": "Villus height", "setting": "SBS mice; Sham + ACE-I mice", "value": "340±20", "unit": "μm"}, {"measurement": "ACE levels (mRNA)", "setting": "DSS-induced colitis; DSS + ACE-I, colonic mucosal ACE as a ratio to beta-actin levels", "value": "0.08 ± 0.13"}, {"measurement": "Hemocult onset", "setting": "DSS-induced colitis; DSS + ACE-I, enalaprilat 0.015 mg/day i.p. daily", "value": "4.8 ± 0.8", "unit": "days"}, {"measurement": "Body Weight Loss", "setting": "DSS-induced colitis; DSS + ACE-I, enalaprilat 0.015 mg/day i.p. daily, 2.5% DSS 7 days", "value": "16.6 ±+2.7%"}, {"measurement": "Histologic Grade (histologic colitis score)", "setting": "DSS-induced colitis; DSS + ACE-I, enalaprilat 0.015 mg/day i.p. daily, after eight days", "value": "11.8 ± 1.5"}, {"measurement": "Colon histology (FIG. 5)", "setting": "DSS-induced colitis; DSS colitis, daily enalaprilat injection, saline controls: essentially complete loss of crypts", "value": "significant areas retaining colonic crypts as well as surface epithelial cells"}, {"measurement": "Time course of development of heme-positive stools", "setting": "DSS-induced colitis; compared to mice treated only with saline injection (FIG. 6)", "value": "significantly delayed"}, {"measurement": "IEL ACE protein", "setting": "IEL ACE protein; SBS + ACE-I mice", "value": "0.14 ± 0.03"}, {"measurement": "IEL ACE protein", "setting": "IEL ACE protein; Sham + ACE-I mice", "value": "0.13 ± 0.01"}, {"measurement": "Decline of apoptotic rate (TUNEL) compared to untreated SBS mice", "setting": "[2]; SBS + ACE-I group", "value": 58, "unit": "%"}, {"measurement": "EC Apoptosis (TUNEL analysis)", "setting": "[2]; SBS + ACE-I mice", "value": "1.8 ± 0.5", "unit": "%"}, {"measurement": "Decrease of EC apoptosis (TUNEL) compared to untreated Sham mice", "setting": "[2]; Sham + ACE-I group", "value": 48, "unit": "%"}, {"measurement": "EC Apoptosis (TUNEL analysis)", "setting": "[2]; Sham + ACE-I mice", "value": "1.9 ± 0.4", "unit": "%"}, {"measurement": "Location of apoptotic cells (TUNEL)", "setting": "[2]; after ACE-I administration, untreated SBS and Sham: crypts and lower villi", "value": "confined to the crypts"}, {"measurement": "IEL TNF-α mRNA", "setting": "IEL TNF-α mRNA; SBS + ACE-I mice", "value": "0.5 ± 0.07"}, {"measurement": "IEL TNF-α mRNA", "setting": "IEL TNF-α mRNA; Sham + ACE-I mice", "value": "0.37 ± 0.07"}, {"measurement": "Expression of TNF-α (FIG. 4)", "setting": "IEL TNF-α mRNA; mice with massive small bowel resection administered ACE-I", "value": "decreased expression of TNF-α"}]}]}
